Results as given in patent US10118954B2, “Apelin analogues” (University of Ulster, priority 2014, dated 2018).
Where no end group is shown, it is not given here.

Assays:
[1] = test system: NIH Swiss mice fed a high-fat diet for 150 days; assay: Acute and delayed i.p. glucose tolerance test, blood glucose and plasma insulin; assay type: in vivo; conditions: for Effect on the glucose lowering properties of (Tyr^13)apelin-13 and apelin-13-amide: administered in combination, each 25 nmol/kg
Procedure: Plasma glucose and plasma insulin concentrations were measured prior to and after i.p. administration of glucose alone (18 mmol/kg body weight), or in combination with apelin analogues (25 nmol/kg body weight) in 18 h fasted mice fed a high-fat diet for 150 days. Values represent mean±SEM for eight mice (n=8). *P<0.05, **P<0.01 and ***P<0.001 compared to glucose alone. FIG. 6 illustrates effect of i.p. administration of glucose alone (18 mmol/kg body weight), ([…])apelin-13 and ([…])apelin-13 alone or in combination (each 25 nmol/kg body weight) on (A) blood glucose and (B) plasma insulin in 18 h fasted mice fed a high-fat diet for 150 days. Values represent mean±SEM for eight mice (n=8). *p<0.05 and **p<0.01 compared to glucose alone, ^+P<0.05 compared to ([…])apelin-13, ^∇P<0.05 and ^∇∇P<0.01 compared to ([…])apelin-13. FIG. 10 illustrates tests conducted 2 h after administration of apelin related analogues (25 nmol/kg body wt) in 18 h fasted mice fed a high-fat diet for 150 days. (A) Blood glucose and (B) plasma insulin was measured before and after i.p. administration of glucose (18 mmol/kg body wt) alone or in combination with apelin analogues. Values represent mean±SEM for eight mice (n=8). *P<0.05 and **P<0.01 compared to glucose alone. FIG. 11 illustrates tests conducted 8 h after administration of apelin related analogues (25 nmol/kg body wt) in 18 h fasted mice fed a high-fat diet for 150 days. (A) Blood glucose and (B) plasma insulin was measured before and after i.p. administration of glucose (18 mmol/kg body wt) alone or in combination with apelin analogues. Values represent mean±SEM for eight mice (n=8). *P<0.05 and **P<0.01 compared to glucose alone. FIG. 12 illustrates acute effects of fatty acid modified apelin analogues on glucose-lowering and insulin release in high fat fed Swiss NIH mice with dietary-induced diabetes. (A) Blood glucose and (B) plasma insulin concentrations were measured prior to and after i.p. administration of glucose alone (18 mmol/kg body weight), or in combination with apelin analogues (25 nmol/kg body weight) in 18 h fasted mice fed a high-fat diet for 150 days. Values represent mean±SEM for eight mice (n=8). *P<0.05, compared to glucose alone. FIG. 13 illustrates tests conducted 16 h after administration of fatty acid apelin analogues (25 nmol/kg body wt) in mice fed a high-fat diet for 150 days. (A) Blood glucose and (B) plasma insulin was measured before and after i.p. administration of glucose (18 mmol/kg body wt) alone or in combination with apelin analogues. Values represent mean±SEM for eight mice (n=8). *P<0.05, **P<0.01 and ***P<0.001 compared to glucose alone. NIH Swiss mice (Harlan UK Ltd., Blackthorne, UK) were derived from a nucleus colony obtained from the National Institute of Health, Bethesda, Md., USA. One group of mice were maintained on a standard rodent diet (10% fat, 30% protein, 60% carbohydrate; percent of total energy 12.99 kJ/g, Trouw Nutrition, Cheshire, UK) and used as a model of normal glycaemia. Other NIH Swiss mice were maintained on a high fat diet (45% fat, 20% protein, 35% carbohydrate; percent of total energy 26.15 […], UK) from 8 weeks of age for 150 days to produce a model of diet induced obesity-diabetes. […] All mice were housed in an air-conditioned room maintained at 22±2° C. with a 12 h light: 12 h dark cycle (08:00-20:00 h), were singly caged, and selected for experimental groups according to body weight and non-fasted blood glucose. Drinking water and diet were freely available. All animal studies were performed in accordance with the UK Animals (Scientific Procedures) Act 1986. For acute in vivo studies, blood samples were collected from the cut tip of the tail vain of fasted, conscious mice into fluoride/heparin coated glucose microcentrifuge tubes (Sarstedt, Germany) immediately prior to (t=0) and at 15, 30, 60 and 105 min following i.p. injection of glucose ([…]).

[2] = Degradation of apelin peptides by plasma from fasted normal NIH Swiss mice (rp-HPLC, MALDI-TOF MS); assay type: in vitro ADME
Procedure: Degradation of Apelin Peptides by Plasma from Fasted Normal NIH Swiss Mice […] The enzymatic reaction was stopped by adding 50 μl of 10% TFA (0.1% v/v; Sigma-Aldrich Ltd, (Poole, Dorset, UK) and frozen at -20° C. until separation. The terminated reaction products were then applied to an analytical Vydac C-8 column (4.6×150 mm; Phenomenex, Macclesfield, Cheshire, UK) for rp-HPLC analysis. The absorbance was monitored at 214 nm using a […] UV 2000 detector (Thermoquest Limited, Manchester, UK) and the traces were recorded by Thermo Electron ChromQuest data collection software (version 4). HPLC peak fractions were collected manually and subjected to MALDI-TOF mass spectrometry for peptide identification. Degradation profile of various apelin-13 related analogues: plasma incubations (4 h) were separated on a Vydac C-8 analytical HPLC column and all peaks were collected prior to analysis by MALDI-TOF mass spectrometry. Degradation fragments, actual molecular weights (Mr) and retention times (RT) are shown. Theoretical molecular weights of each fragment are shown in brackets. […] Degradation fragments, theoretical molecular weights (Mr) and retention times (RT) are shown. Theoretical molecular weights of each fragment are shown in brackets.

[3] = acute, alone and in combination, each 25 nmol/kg i.p. with glucose, Table 5
[4] = acute, peptide 25 nmol/kg i.p. with glucose 18 mmol/kg, Table 4
[5] = NIH Swiss, mouse, plasma, pH 7.4
[6] = following a 2 h delay, 25 nmol/kg
[7] = following a 8 h delay, 25 nmol/kg
[8] = fatty acid derived agonists, 16 h delayed i.p. glucose tolerance test, 25 nmol/kg
[9] = fatty acid derived agonists, acute i.p. glucose tolerance test, 25 nmol/kg

Row | Compound | Rank order on basis of anti-hyperglycaemic efficacy ([1]; acute, Table 4) | Glucose lowering, where glucose alone = 100% [1, 3] | Insulin secretion, where glucose alone = 100% [1, 3] | Blood glucose as percent of glucose-alone control (lower = stronger glucose lowering) [1, 4] | Insulin secretion, where glucose alone = 100% [1, 4] | Degradation fragment, Peak 1 [2] | Rank order of stability [2] | half-life at 263 µg/mL [2, 5] [h] | remaining at 4 h, 263 µg/mL [2, 5] [%] | also measured
1 | CSCC[C@H](NC(=O)[C@@H]1CCCN1C(=O)CNC(=O)[C@H](CCCCN)NC(=O)[C@H](Cc1c[nH]cn1)NC(=O)[C@H](CO)NC(=O)[C@H](CC(C)C)NC(=O)[C@H](CCCNC(=N)N)NC(=O)[C@@H]1CCCN1C(=O)[C@H](CCCNC(=N)N)NC(=O)[C@@H](N)CCC(N)=O)C(=O)N1CCC[C@H]1C(=O)N[C@@H](C)C(=O)O [(Ala^13)apelin-13, reference compound] | 9 | 118% (*) | 74% (*) | 118% (*) | 74% (**) | (Ala^13)apelin-13 (1-8) | 8 | 10.3 | 70.5 ± 2.2 | Effect on the glucose lowering properties of (Tyr^13)apelin-13 and apelin-13-amide [1]: blocked the glucose lowering properties; Degradation fragment, Peak 2 [2]: (Ala^13)apelin-13 (1-11)
2 | CSCC[C@H](NC(=O)[C@@H]1CCCN1C(=O)CNC(=O)[C@H](CCCCN)NC(=O)[C@H](Cc1c[nH]cn1)NC(=O)[C@H](CO)NC(=O)[C@H](CC(C)C)NC(=O)[C@H](CCCNC(=N)N)NC(=O)[C@@H]1CCCN1C(=O)[C@H](CCCNC(=N)N)NC(=O)[C@@H](N)CCC(N)=O)C(=O)N1CCC[C@H]1C(=O)N[C@@H](Cc1ccc(O)cc1)C(=O)O [(Tyr^13)apelin-13] | 4 | 77% (*) | 131% (*) | 77% (*) | 131% (*) | (Tyr^13)apelin-13 (1-7) | 10 | 8.5 | 76.7 ± 1.3 | Rank order on basis of anti-hyperglycaemic efficacy ([1]; following a 2 h delay): 4; Blood glucose as percent of glucose-alone control (lower = stronger glucose lowering) [1, 6]: 85% ^; Insulin secretion, where glucose alone = 100% [1, 6]: 116% ^; Rank order on basis of anti-hyperglycaemic efficacy ([1]; following a 8 h delay): 4; Blood glucose as percent of glucose-alone control (lower = stronger glucose lowering) [1, 7]: 91% ^; Insulin secretion, where glucose alone = 100% [1, 7]: 104%; Degradation fragment, Peak 2 [2]: (Tyr^13)apelin-13 (1-12)
3 | CSCC[C@H](NC(=O)[C@@H]1CCCN1C(=O)CNC(=O)[C@H](CCCCN)NC(=O)[C@H](Cc1c[nH]cn1)NC(=O)[C@H](CO)NC(=O)[C@H](CC(C)C)NC(=O)[C@H](CCCNC(=N)N)NC(=O)[C@@H]1CCCN1C(=O)[C@H](CCCNC(=N)N)NC(=O)[C@@H](N)CCC(N)=O)C(=O)N1CCC[C@H]1C(=O)N[C@H](C(=O)O)C(C)C [(Val^13)apelin-13] | 10 | 124% (**) | 68% (**) | 124% (**) | 68% (*) | (Val^13)apelin-13 (1-12) | 11 | 7.7 | 66.5 ± 1.1 | Effect on the glucose lowering properties of (Tyr^13)apelin-13 and apelin-13-amide [1]: blocked the glucose lowering properties
4 | CSCC[C@H](NC(=O)[C@@H]1CCCN1C(=O)CNC(=O)[C@H](CCCCN)NC(=O)[C@H](Cc1c[nH]cn1)NC(=O)[C@H](CO)NC(=O)[C@H](CC(C)C)NC(=O)[C@H](CCCNC(=N)N)NC(=O)[C@@H]1CCCN1C(=O)[C@@H](N)CCCNC(=N)N)C(=O)N1CCC[C@H]1C(=O)N[C@@H](Cc1ccccc1)C(=O)O [Apelin-12, reference compound] | – | – | – | – | – | – | 13 | – | 39.5 ± 1.9 | half-life ([2]; mouse, plasma): 3.4 h
5 | CCCCCCCCCCCCCCCC(=O)N[C@@H](CCC(=O)NCCCC[C@H](NC(=O)[C@H](Cc1c[nH]cn1)NC(=O)[C@H](CO)NC(=O)[C@H](CC(C)C)NC(=O)[C@H](CCCNC(=N)N)NC(=O)[C@@H]1CCCN1C(=O)[C@H](CCCNC(=N)N)NC(=O)[C@@H](N)CCC(N)=O)C(=O)NCC(=O)N1CCC[C@H]1C(=O)N[C@@H](CCSC)C(=O)N1CCC[C@H]1C(=O)N[C@@H](Cc1ccc(O)cc1)C(=O)O)C(=O)O [Lys^8GluPAL(Tyr^13)apelin-13] | – | – | – | – | – | – | =1 | > 24 | 100 | Rank order on basis of anti-hyperglycaemic efficacy ([1]; fatty acid derived agonists, 16 h delay): 3; Blood glucose as percent of glucose-alone control (lower = stronger glucose lowering) [1, 8]: 91% ^; Insulin secretion, where glucose alone = 100% [1, 8]: 126% (*); Rank order on basis of anti-hyperglycaemic efficacy ([1]; fatty acid derived agonists, acute): 3; Glucose lowering, where glucose alone = 100% [1, 9]: 93%; Insulin secretion, where glucose alone = 100% [1, 9]: 104%; Half-life (t1/2) ([2]; NIH Swiss, mouse, plasma, 263 µg/mL, pH 7.4): >24 h
6 | CSCC[C@H](NC(=O)[C@@H]1CCCN1C(=O)CNC(=O)[C@H](CCCCN)NC(=O)[C@H](Cc1cnc[nH]1)NC(=O)[C@H](CO)NC(=O)[C@H](CC(C)C)NC(=O)[C@H](CCCNC(=N)N)NC(=O)[C@@H]1CCCN1C(=O)[C@H](CCCNC(=N)N)NC(=O)[C@@H]1CCC(=O)N1)C(=O)N1CCC[C@H]1C(=O)N[C@@H](C)C(=O)O [pGlu(Ala^13)apelin-13, pGlu (Ala^13)apelin-13] | 7 | – | – | 110% ^ | 86% (*) | (1-7) | 6 | 11.1 | 74.4 ± 5.2 | –
7 | LVQPRGSRNGPGPWQGGRRKFRRQRPRLSHKGPMPF [Apelin-36, reference compound] | – | – | – | – | – | – | 15 | 1.3 | 5.5 ± 0.6 | –
